Earlier results, collected in patent US20100105640A1, “Aromatase Inhibitors for Emergency Contraception” (priority 2005, published 2010).

Settings: Yuzpe n = 979, Levonorgestrel n = 977

C#C[C@]1(O)CC[C@H]2[C@@H]3CCC4=CC(=O)CC[C@@H]4[C@H]3CC[C@@]21CC [Levonorgestrel, levonorgestrel]
Percent with symptom (95% confidence interval): Breast tenderness: 10.8%
Percent with symptom (95% confidence interval): Dizziness: 11.2%
Percent with symptom (95% confidence interval): Fatigue: 16.9%
Percent with symptom (95% confidence interval): Headache: 16.8%
Percent with symptom (95% confidence interval): Low abdominal pain: 17.6%
Percent with symptom (95% confidence interval): Nausea: 23.1%
Percent with symptom (95% confidence interval): Vomiting: 5.6%
Percent with symptom (95% confidence interval): All other adverse effects (mostly diarrhea and some irregular bleeding or spotting): 13.5%
